In patent US6481153B1, “Turf additive formulation for reduction of localized dry spots due to water repellency” (Milliken & Company, priority 2001, dated 2002):

Columns and labels:
[1] = hydrophobic sand humic acid removal test; details: formulation diluted 42 parts water:1 part; 2 ml on 3 g humic acid coated sand; dried 60° C. 24 hours; 10 ml distilled water passed through; absorbance at 620 nm vs humic acid calibration curve
Procedure: Initially, a calibrated stock solution measurement curve for humic acid itself was generated for comparison purposes with tested humic acid removal samples. Thus, a 5000 ppm Humic Acid (purchased from Fluka Chemika) stock solution was prepared by dissolving 0.5 grams of Humic acid in 100 milliliters of water. Further standard solutions were prepared by serial dilution of the 5000 ppm sandard stock solution. The absorbance of each solution was measured at 620 nm on a Beckman Model DU 650 Spectrophotometer and a plot of absorbance versus concentration provided the Humic
The Examples, listed above, both inventive and comparative, were then each individually diluted with water (42 parts water:1 part example formulation). Two milliliters of each diluted example was then placed into the open end of a 19 inch clear plastic tube containing 3 grams of the above specific humic acid coated sand. One end was then plugged by a two-layer cheese cloth square of 1.5×1.5 cm and then the tube was situated vertically with the plugged end lower. The solutions were allowed to pass through the sand and were collected after passing through the plug. The sand was then placed in an oven at 60° C. for 24 hours to remove any residual moisture. The sand (3 grams) was again packed into a 19 inch clear plastic tube plugged at one end with the cheese cloth plug. Ten ml of distilled water was then passed through the sand and collected. The absorbance at 620 nm of the distilled water sample was then measured and compared to the humic acid calibration curve (from the Table, above) to determine the amount of humic acid removed from the coated sand. This test is, for the context of this invention, is the definition of “hydrophobic sand humic acid removal test”.

grass = details: in vivo; cited from earlier work

| Molecule | ppm Removed (Removal of Humic acid from Sand) [1] | phytotoxicity to grass (grass) |
| --- | --- | --- |
| TPSA Dipotassium Salt [Example 6] | 837.52 ppm | – |
| TPSA Mono-TEA Salt [Example 7] | 872.40 ppm | – |
| [Na+].[OH-] [sodium hydroxide] | – | highly phytotoxic |
| TPSA Di-TEA Salt [Example 8] | 246.46 ppm | – |
| fully neutralized n-octenyl succinic anhydride sulfanilic sodium salt [Example 9] | 1015.15 ppm | – |
| O=C([O-])CCCCCCCCC(=O)[O-].[K+].[K+] [Example 4, Potassium sebacate] | 789.78 ppm | – |
